# Data reported in the SangsterLogP compilation.
# How the values were obtained:
# [1] = method code SF-AS, from DOI: 10.1007/bf01964075; conditions: pH 2.1
# [2] = method code SF-AS, from Jha, T.; Debnath, A.; Mazumdar, A.; Sengupta, C.; De, A. (1986). Hansch analysis of antineoplastic agents, 5-N-substituted-2-p-substituted benzenesulfonyl-L-glutamines. Ind. J. Chem., Sect. B, …
# [3] = not given; remark: listed apart in the source
# [4] = not given; remark: listed apart in the source
# [5] = not given; remark: listed apart in the source
# [6] = not given; remark: listed apart in the source
# [7] = method code SF, from DOI: 10.1016/s0045-6535(97)00338-x
# [8] = method code SF-AS, from DOI: 10.1007/s001289900104, PMID: 8661852
# [9] = method code SF-AS, from DOI: 10.1002/em.2850200210, PMID: 1505530
# [10] = not given; remark: listed apart in the source
# [11] = method code SF-AS, from DOI: 10.1016/j.bioorg.2006.09.003, PMID: 17078995; conditions: pH 7.4
# [12] = method code SF-AS, from DOI: 10.1128/aac.27.1.84, PMID: 2580479
# [13] = method code SF-AS, from DOI: 10.1007/bf01648987
# [14] = from Rich, R. (1990). Partition coefficients of quinones and their relation to biochemical reactivity. In Lenaz, G. (Ed.), Highlights in Ubiquinone Research: Proceedings of the International Symposium, …
# [15] = method code SF-AS, from DOI: 10.1002/jps.2600630206, PMID: 4204981
# [16] = not given; remark: listed apart in the source
# [17] = method code SF-AS, from DOI: 10.1016/j.ejps.2010.09.003, PMID: 20854904; conditions: pH 10.0
# [18] = method code SF-HPLC, from PMID: 1293941
# [19] = method code SF-AS, from DOI: 10.1016/s0045-6535(98)00368-3
structure (smiles),measurement,setting,value
Oc1cccc(O)c1,logD,[1],0.83
CCNC(=O)CCC(NS(=O)(=O)c1ccccc1)C(=O)O (stereo not drawn),logP,[2],0.38
CC(C(=O)O)c1ccc(N2CC=CC2)c(Cl)c1 (stereo not drawn),logP,,3.58
O=C(O)CCCCOc1cccc2ccccc12,logP,[3],4
COC(=O)CS(=O)c1ccc([N+](=O)[O-])cc1 (stereo not drawn),logP,[4],0.98
c1ccc2c(c1)ncn2C12CC3CC(CC(C3)C1)C2,logP,[5],3.64
Cc1cc(Cc2ccc(Cl)cc2Cl)c(Cl)cc1Cl,logP,[6],6.77
O=S(=O)(CBr)c1ccc(F)cc1,logP,[7],1.74
c1ccc2c(c1)cnn2C12CC3CC(CC(C3)C1)C2,logP,[5],4.33
O=[N+]([O-])c1c(O)nc(-c2ncncn2)nc1O,logP,[8],2.02
CCCCCCNC(=O)CCC(NS(=O)(=O)c1ccc(C)cc1)C(=O)O (stereo not drawn),logP,[2],0.92
O=[N+]([O-])c1ccc2ccccc2c1,logP,[9],3.24
O=C(Oc1ccc(-c2ccccc2)cc1)C1OC(O)C(O)C(O)C1O (stereo not drawn),logP,[10],1.79
O=[N+]([O-])c1cc(F)ccc1O,logP,[7],1.88
CCC(=O)OCCc1ccc(O)c(O)c1,logD,[11],1.2
CCN(CC)CC,logP,,1.36
CC(=O)OCC1=C(C(=O)O)N2C(=O)[C@@H](NC(=O)CC#N)[C@H]2SC1,logP,[12],-0.45
O=C(O)CCCOc1cccc2ccccc12,logP,[3],3.5
COC(=O)CS(=O)(=O)c1ccc([N+](=O)[O-])cc1,logP,[4],0.92
CC(=O)Oc1ccc(F)cc1,logP,[7],1.41
Clc1ncc(-c2ncncn2)c(Cl)n1,logP,[8],1.32
CN(C)c1ccccc1,logP,[13],2.29
Cc1ccc(OC(=O)C2OC(O)C(O)C(O)C2O)cc1 (stereo not drawn),logP,[10],0.37
Cc1cc(O)cc(C)c1O,logP,[14],1
Oc1ccc(Br)cc1Br,logP,[13],3.48
O=C(O)C1COc2ccccc2O1 (stereo not drawn),logP,[15],1.4
O=C(O)C1CCc2cc(Cl)ccc2O1 (stereo not drawn),logP,[15],2.4
FC(F)(F)c1cccc(C2CNCCO2)c1 (stereo not drawn),logP,[16],2.18
Cc1cc(O)ccc1O,logP,[14],0.91
Cc1c(O)ccc(O)c1C,logP,[14],1.36
COC(=O)CS(=O)c1ccccc1[N+](=O)[O-] (stereo not drawn),logP,[4],0.98
Clc1nc(Cl)nc(Nc2ccccc2)n1,logP,[8],3.03
Cc1c(Cl)ccc(Cc2ccc(Cl)cc2Cl)c1Cl,logP,[6],6.85
COc1ccc(OC(=O)C2OC(O)C(O)C(O)C2O)cc1 (stereo not drawn),logP,[10],-0.01
c1cnn(C23CC4CC(CC(C4)C2)C3)c1,logP,[5],3.05
O=C(O)COc1ccc(F)cc1,logD,[7]; pH 2.0,1.57
CCN1CCN(C(=O)N[C@@H](C(=O)N[C@@H]2C(=O)N3C(C(=O)O)=C(CSc4nnnn4C)CS[C@H]23)c2ccc(O)cc2)C(=O)C1=O,logP,[12],-0.74
O=C(O)C1Cc2cc(Cl)ccc2O1 (stereo not drawn),logP,[15],2.11
CN(C)CCC(=O)c1ccccc1,logD,[17],1.77
CCCOC(=O)c1ccc(N)cc1,logP,[18],2.43
OCCOc1cccc2ccccc12,logP,[3],2.5
Fc1cccc(C2CNCCO2)c1 (stereo not drawn),logP,[16],1.42
NS(=O)(=O)c1ccccc1Cl,logP,[19],0.79
CCCC(=O)OCCc1ccc(O)c(O)c1,logD,[11],1.77
Cc1cc(Cl)ccc1O,logP,[13],2.78
COC(=O)c1ccccc1S(N)(=O)=O,logP,[19],0.01
CCCNC(=O)CCC(NS(=O)(=O)c1ccccc1)C(=O)O (stereo not drawn),logP,[2],-0.08
O=C(Oc1ccccc1)C1OC(O)C(O)C(O)C1O (stereo not drawn),logP,[10],-0.69
CNC(=O)[C@@H](NC(C)=O)C(C)C,logD,[1],-0.35
Cc1cc(Cc2c(Cl)cccc2Cl)c(Cl)cc1Cl,logP,[6],6.53
c1ccc(CN2CCOCC2)cc1,logP,[16],1.58
CN(c1ccccc1)c1nc(Cl)nc(Cl)n1,logP,[8],3.07
O=[N+]([O-])c1cccc2cccnc12,logP,[9],1.44
